Measurements published in PubChem BioAssay (NCI).
Where “and” joins values, the source holds several entries; their conditions need not be identical. Equal values may be shown once.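 Assay format: 96-well plates, 48-hour exposure. The concentration for 50% growth inhibition is given as GI50. TGI is the concentration that stops growth completely.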

Key:
Assay in all cases: NCI tumour cell line growth inhibition, 48 h
CAKI-1 renal = system: CAKI-1 renal
UACC-62 melanoma = system: UACC-62 melanoma
M14 melanoma = system: M14 melanoma
NCI-H226 lung = system: NCI-H226 lung
HCT-116 colon = system: HCT-116 colon
HOP-92 NSCLC = system: HOP-92 NSCLC
SF-268 CNS = system: SF-268 CNS
CCRF-CEM leukemia = system: CCRF-CEM leukemia
OVCAR-8 ovarian = system: OVCAR-8 ovarian
MALME-3M melanoma = system: MALME-3M melanoma

| Structure (SMILES) | GI50 (CAKI-1 renal) [µM] | TGI (CAKI-1 renal) | GI50 (UACC-62 melanoma) [µM] | TGI (UACC-62 melanoma) | GI50 (M14 melanoma) [µM] | TGI (M14 melanoma) | GI50 (NCI-H226 lung) [µM] | TGI (NCI-H226 lung) | GI50 (HCT-116 colon) [µM] | TGI (HCT-116 colon) | GI50 (HOP-92 NSCLC) [µM] | TGI (HOP-92 NSCLC) [µM] | GI50 (SF-268 CNS) [µM] | TGI (SF-268 CNS) | GI50 (CCRF-CEM leukemia) [µM] | TGI (CCRF-CEM leukemia) | GI50 (OVCAR-8 ovarian) [µM] | TGI (OVCAR-8 ovarian) | GI50 (MALME-3M melanoma) [µM] | TGI (MALME-3M melanoma) |
| --- | --- | --- | --- | --- | --- | --- | --- | --- | --- | --- | --- | --- | --- | --- | --- | --- | --- | --- | --- | --- |
| CCOC(=O)N(O)c1ccc(/C=C/c2ccccc2)cc1 | 2.7 | 21.4 µM | 0.47 | 3.07 µM | 7.17 | 26.8 µM | 0.128 | 0.446 µM | 0.407 | 10.5 µM | 4.96 | 35.7 | 18.2 | > 100 µM | 9.38 | > 93.5 µM | 10.9 | > 100 µM | 19.5 | 61.4 µM |
| O=C(CCc1cc(-c2ccc(F)cc2)n[nH]1)N(Cc1ccccc1)Cc1ccccc1 | – | > 100 µM | – | > 100 µM | – | > 100 µM | – | > 100 µM | – | > 100 µM | – | > 100 | – | > 100 µM | – | > 100 µM | – | > 100 µM | – | > 100 µM |
| COc1cc(CCc2ccncc2)cc(OC)c1OC | – | > 100 µM | – | > 100 µM | – | > 100 µM | – | > 100 µM | – | > 100 µM | – | > 100 | – | > 100 µM | – | > 100 µM | – | > 100 µM | – | > 100 µM |
| CC/C(C)=C1\CCC(CN(C)C)C1=O (stereo not drawn) | – | 4.36 µM | – | > 100 µM | – | 33.6 µM | – | > 100 µM | – | 31.7 µM | – | 46.2 | – | 43.2 µM | – | 39.8 µM | – | 76.1 µM | – | 39.1 µM |
| O=S(=O)(Nc1ccc(Cl)c(Cl)c1)c1ccc(-c2cnc(C3CC3)o2)cc1 | 0.384 | 16.7 µM | 0.433 | 14.5 µM | 0.418 | 13.1 µM | 1.82 | 19.5 µM | 0.458 | 13.9 µM | 0.367 | 12.5 | 1.26 | 23.8 µM | 0.439 | > 77.5 µM | 1.23 | 20.1 µM | 2.67 | 25.8 µM |
| Cc1ccc(C)c(NC(=O)C(=O)Nn2c(=S)[nH]c3ccccc3c2=O)c1 | – | > 100 µM | – | > 100 µM | – | > 100 µM | – | > 100 µM | – | > 100 µM | – | > 100 | – | > 100 µM | – | > 100 µM | – | > 100 µM | – | > 100 µM |
| C[C@H]1CC[C@@H]2[C@@H](C)[C@H]3[C@H](C[C@H]4[C@@H]5CC=C6C[C@@H](O)CC[C@]6(C)[C@H]5CC[C@]34C)N2C1 | – | > 100 µM | – | > 100 µM | – | > 100 µM | – | > 100 µM | – | > 100 µM | – | 58.3 | – | > 100 µM | – | > 100 µM | – | > 100 µM | – | > 100 µM |
| O=C1/C(=C/c2ccc(O)cc2)Oc2ccccc21 | – | > 100 µM | – | > 100 µM | – | > 100 µM | – | > 100 µM | – | > 100 µM | – | > 100 | – | > 100 µM | – | > 100 µM | – | > 100 µM | – | > 100 µM |
| N#CC(C#N)C(c1ccccc1)c1ccccc1 | – | > 100 µM | – | > 100 µM | – | > 100 µM | – | > 100 µM | – | > 100 µM | – | > 100 | – | > 100 µM | – | > 100 µM | – | > 100 µM | – | > 100 µM |
| O=C1CC2OCC=C3CN4CCC5(C(=O)O)C(N1)C2C3CC45 (stereo not drawn) | – | > 100 µM | – | > 100 µM | – | > 100 µM | – | > 100 µM | – | > 100 µM | – | > 100 | – | > 100 µM | – | > 100 µM | – | > 100 µM | – | > 100 µM |
| CN1C/C(=C\c2ccc(C(=O)O)cc2)C(=O)/C(=C/c2ccc(C(=O)O)cc2)C1 | – | > 100 µM | – | > 100 µM | – | > 100 µM | – | > 100 µM | – | > 100 µM | – | > 100 | – | > 100 µM | – | > 100 µM | – | > 100 µM | – | > 100 µM |
| NC1=Nc2ccccc2Sc2ccccc21 | – | > 100 µM | – | > 100 µM | – | > 100 µM | – | > 100 µM | – | > 100 µM | – | > 100 | – | > 100 µM | – | > 100 µM | – | > 100 µM | – | > 100 µM |
| C[C@@H]1Cc2c(ccc3[nH]ncc23)[C@@H](c2ccc(NC3CN(CCCF)C3)cn2)N1CC(F)(F)F | 15.9 | 37.1 µM | 15.2 | 30.5 µM | 16.5 | 32.2 µM | 39 | > 100 µM | 14.5 | 28.2 µM | 3.1 | 20.1 | 22.3 | 79.4 µM | 21.1 | 67.3 µM | 23.5 | 69.8 µM | 12.4 | 26.6 µM |
| N/C(CC(=O)NOC(=O)c1ccccc1)=N/OC(=O)c1ccccc1 | – | > 100 µM | – | > 100 µM | – | > 100 µM | – | 92.5 µM | – | > 100 µM | – | > 100 | – | 75.1 µM | – | > 100 µM | – | > 100 µM | – | > 100 µM |
| CCN(CC)CCNc1ccc([N+](=O)[O-])c2nc3ccc(OC)cc3c(N)c12 | – | 3.85 µM | – | 3.61 µM | – | 2.97 µM | – | 4.41 µM | – | 0.284 µM | – | 3.19 | – | 3.63 µM | – | 1.31 µM | – | 3.45 µM | – | 3.61 µM |
| CN1CCN(c2nc3cc(F)ccc3n3cccc23)CC1 | – | 79 µM | – | 80.4 µM | – | 34.5 µM | – | 54.1 µM | – | > 100 µM | – | > 100 | – | > 100 µM | – | > 100 µM | – | > 100 µM | – | 62.4 µM |
| Cc1c2ccccc2c(C)n2c1nc1cc(Cl)c(Cl)cc12 | 15.1 | > 100 µM | 45.2 | > 100 µM | > 100 | > 100 µM | > 100 | > 100 µM | 18.6 | > 100 µM | > 100 | > 100 | > 100 | > 100 µM | 43.9 | > 100 µM | > 100 | > 100 µM | > 100 | – |
| COC(=O)Nc1nc2ccc(C(=O)c3cccs3)cc2[nH]1 | 0.232 | 56.3 µM and > 100 µM | 0.189 | 65.4 µM and > 100 µM | 0.0797 | 2.79 µM and 0.432 µM | 0.275 | 1.26 µM and 2.54 µM | 0.0732 | 16.5 µM and 14.2 µM | > 100 | – | 0.452 | 60.7 µM and > 100 µM | 0.124 | 19.8 µM and > 100 µM | 0.487 | 15.7 µM and > 100 µM | 0.296 | 43.5 µM and > 100 µM |
